Like-named read-outs stand apart in the source and are kept apart here.
Columns and labels:
D458 = assay: MTT assay, 48 h exposure, D458 MB cells; type: cell-based, human; conditions: for IC50: MTT, 48 h exposure, mean ± SEM
Description: (§1) HDF (3000 cells), C8-D1A (5000 cells), D458 (5000 cells), DAOY (2000 cells), HD-MB03 (10,000 cells) and CHLA-01-Med (10,000 cells) were seeded at an approximate confluency of 50% in 96-well plates (Corning Inc., Corning, NY, USA) in 100 µL medium per well. A range from 50 nM to 150 µM of every drug was tested. The effects of the antiangiogenic compounds were measured using a 3-[4,5-dimethylthiazol-2yl]-diphenyltetrazolium bromide (MTT) colorimetric assay (Sigma, Lyon, France) according to the manufacturer’s instructions. When applicable, IC50 was calculated using the nonlinear regression method of the Prism 5 software (Graphpad Software Inc., San Diego, CA, USA). […] An MTT assay was conducted as described above to assess the fitness of the cells.

HD-MB03 = assay: MTT assay, 48 h exposure, HD-MB03 MB cells; type: cell-based, human; conditions: for IC50: MTT, 48 h exposure, mean ± SEM
Description: as §1

C8-D1A = assay: MTT assay, 48 h exposure, murine primary astrocytes; type: cell-based
Description: as §1

DAOY = assay: MTT assay, 48 h exposure, DAOY MB cells; type: cell-based, human; conditions: for IC50: MTT, 48 h exposure, mean ± SEM
Description: as §1

HDF [1] = assay: MTT assay, 48 h exposure, human dermal fibroblasts; type: cell-based
Description: as §1

CHLA-01-Med = assay: MTT assay, 48 h exposure, CHLA-01-Med MB cells; type: cell-based, human
Description: as §1

C8-D1A astrocytes = assay: Cell viability, propidium iodine incorporation, C8-D1A; type: cell-based, murine; conditions: 48 h; axitinib, cabozantinib, sunitinib 5 µM, etoposide 1 µM
Description: (§2) Cell viability assays were conducted using a propidium iodine incorporation technique with an ADAM-sHIT automated cell counter (NanoEnTek, Gyeonggi-do, Korea) according to the manufacturer’s protocol.

HDF [2] = assay: Cell viability, propidium iodine incorporation, HDF; type: cell-based, human; conditions: 48 h; axitinib, cabozantinib 5 µM, etoposide 1 µM
Description: as §2

MB cells = assay: Cell viability, propidium iodine incorporation, MB cells; type: cell-based, human; conditions: 48 h, 5 µM
Description: as §2

N.N.O=C([O-])C1(C(=O)[O-])CCC1.[Pt+2] [Carboplatin, carboplatin]
IC50 (D458; Table 3): > 20 µM | IC50 (HD-MB03; Table 3): > 20 µM | IC50 (C8-D1A; Table 3, mean ± SEM): > 20 µM | IC50 (DAOY; Table 3): > 20 µM | IC50 (HDF [1]; Table 3, mean ± SEM): > 20 µM

COc1cc2nccc(Oc3ccc(NC(=O)C4(C(=O)Nc5ccc(F)cc5)CC4)cc3)c2cc1OC [Cabozantinib, cabozantinib]
IC50 (D458; Homo sapiens, Table 1): 5.1 ± 1.6 µM | Specificity Index relative to C8D1A, D458 (D458; ratio IC50 C8-D1A / IC50 D458): 0.78 | Specificity Index relative to HDF, D458 (D458; ratio IC50 HDF / IC50 D458): 0.80 | IC50 (CHLA-01-Med; Homo sapiens, Table 1, MTT, 48 h exposure, mean ± SEM): 11.4 ± 2.1 µM | Specificity Index relative to C8D1A, CHLA-01-Med (CHLA-01-Med; ratio IC50 C8-D1A / IC50 CHLA-01-Med): 0.35 | Specificity Index relative to HDF, CHLA-01-Med (CHLA-01-Med; ratio IC50 HDF / IC50 CHLA-01-Med): 0.36 | IC50 (HD-MB03; Homo sapiens, HD-MB03, Table 1): 0.78 ± 0.2 µM | Specificity Index relative to C8D1A, HDMB (HD-MB03; ratio IC50 C8-D1A / IC50 HD-MB03): 5.13 | Specificity Index relative to HDF, HD-MB03 (HD-MB03; ratio IC50 HDF / IC50 HD-MB03): 5.26 | IC50 (C8-D1A; Mus musculus, C8-D1A, Table 1, normal cells, mean ± SEM, read-out: IC50 (µM) C8D1A): 4 ± 2.2 µM | viability of C8-D1A normal cells (C8-D1A astrocytes): no effect on the viability | IC50 (DAOY; Homo sapiens, Daoy, Table 1): 8.3 ± 1.2 µM | Specificity Index relative to C8D1A, DAOY (DAOY; ratio IC50 C8-D1A / IC50 DAOY): 0.48 | Specificity Index relative to HDF, DAOY (DAOY; ratio IC50 HDF / IC50 DAOY): 0.49 | IC50 (HDF [1]; Homo sapiens, HDF, Table 1, normal cells, mean ± SEM): 4.1 ± 1.9 µM | viability of HDF normal cells (HDF [2]): no effect on the viability | viability of MB cells (MB cells): decreased the viability of most MB cells

From publication PMC8750527 (Cancers, 2021)
